Patent US7972785B2, “Biomarkers for liver fibrotic injury” (Industrial Technology Research Institute (ITRI), priority 2006, dated 2011)

System: rat liver proteins (vimentin, fibrinogen)
Experiment: iTRAQ proteomics / Western blot of liver protein of DMN-treated rats
Assay type: in vivo
Conditions: DMN-induced rats
Description: The liver tissues of 6 control and 6 DMN-treated rats were used to perform duplicate iTRAQ labeling experiments. Liver tissue was frozen in liquid nitrogen and then pulverized to powder using a mortar and pestle pre-cooled with liquid nitrogen. Then, the liquid nitrogen was allowed to evaporate, and the powdered tissue was separated into tubes and stored at −80° C. Twenty volumes (w/v) of lysis buffer (containing 2% (w/v) SDS in 20 mM phosphate buffer at pH 7.6) was added to the powdered tissue and incubated at room temperature for 1 hour. […]
The total protein contents were determined using the Coomassie Plus Protein Assay Reagent (PIERCE, Rockford, Ill., U.S.A.). […]
Peptides with different isobaric tags were pooled and acidified by mixing with 10 mM phosphoric acid (in 25% (v/v) acetonitrile and 75% H2O) to a total volume of 4.0 mL for strong cation exchange (SCX) chromatography. […] The desalted peptide from each SCX fraction was dried by speed vacuuming centrifugation and then analyzed by nanoLC hybrid mass spectrometry. […] MS/MS mass spectra were analyzed in continuous flow mode with a […] I.D. fused silica tip. MS/MS spectra were analyzed against rat.fasta databases from NCBI by ProQUANT 2.0 (Applied Biosystems/MDS Sciex, Foster City, Calif., U.S.A.). […] Relative quantification of peptide was performed on the MS/MS scans, using ratio of the areas under the peaks. […]

CN(C)N=O [DMN, Dimethylnitrosamine]
Fibrinogen protein expression: up-regulated
